Source: article PMC12056667 (Chemical Science, 2025)
Read-outs that look alike come from different tables or passages of the source.

What was measured:
[1] = system: Acinetobacter spp. NT3-1 – tet(X3); assay: microbe, parasite or virus in culture; format: cell-based; settings: for MIC: Acinetobacter, read-out: Tet(X) Inhibitor MIC, alone; for Combination (Antibiotic/Inhibitor) MICs: inhibitor / Combination (Antibiotic/Inhibitor) MICs: antibiotic: lowest FICI
Description: (§1) MIC tests and checkerboard assays were performed in U-bottom, 96-well microtiter plates using a modified broth microdilution protocol following CLSI guidelines. Cation-adjusted Mueller-Hinton Broth (CAMHB) was prepared fresh on the day of testing.[74] In brief, assays were set up in a total volume of 100 μL per well and titrations comprised seven 2-fold dilutions of inhibitors and ten 2-fold dilutions of tigecycline in CAMHB. Bacterial colonies were selected from an overnight culture on MHA plates (supplemented with 0.2%w/vL-arabinose for E. coli TOP10 containing pBAD-TOPO-Tet(X4)) and were suspended in 0.9% saline solution to achieve a 0.5 McFarland standard. A 100 μL aliquot of this suspension was then diluted into 9.9 mL of CAMHB to yield approximately 1.5 × 10^6 cfu mL^−1. 50 μL of the suspension was then added to each well of a microtiter plates. Plates were incubated at 37 °C for 18 h. At least 2 replicates were conducted for each combination. E. coli TOP10 + pBAD-TOPO-Tet(X4) cells were grown in the absence and presence of 0.2%w/vL-arabinose. Analysis of the MIC and checkerboard results were carried out by visual inspection of growth, with and without resazurin dye, an oxidation–reduction indicator.[75] As a measure of synergy, fractional inhibitory concentration index (FICI) was calculated as FICA + FICB, where FICA and FICB are the MICcombination/MICalone for each agent, respectively.[76] Results were interpreted as follows: synergistic (<0.5), indifferent (1.0–4.0) or antagonistic (>4.0).[64] In cases where the MIC exceeded or was below the measured range, the borderline value was taken to calculate the FIC index.

[2] = system: Salmonella enterica T-2a – tet(X4); assay: microbe, parasite or virus in culture; format: cell-based; settings: for MIC: Salmonella enterica, read-out: Tet(X) Inhibitor MIC; for Combination (Antibiotic/Inhibitor) MICs: inhibitor / Combination (Antibiotic/Inhibitor) MICs: antibiotic: lowest FICI
Description: as §1

[3] = system: E. coli TOP10 containing plasmid pBAD-TOPO-Tet(X4); assay: Broth microdilution MIC and checkerboard assay; format: cell-based, Escherichia coli; settings: for MIC: Escherichia coli; for Combination (antibiotic/inhibitor) MIC: inhibitor: inhibitor in combination with tigecycline; for Combination (antibiotic/inhibitor) MIC: inhibitor / Combination (antibiotic/inhibitor) MIC: antibiotic / Combination (Antibiotic/Inhibitor) MICs: antibiotic / Combination (Antibiotic/Inhibitor) MICs: inhibitor: lowest FICI; for Combination (antibiotic/inhibitor) MIC: antibiotic: tigecycline in combination with the inhibitor; for Tet(X) inhibitor MIC: alone; for reduction of the tigecycline MIC: at high concentrations of inhibitor
Method in brief: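 E. coli TOP10 with pBAD-TOPO-Tet(X4), […], tested by CLSI broth microdilution in CAMHB, ~1.5 × 10^6 cfu mL^−1 inoculum, 37 °C, 18 h. Checkerboard of seven 2-fold inhibitor dilutions × ten dilutions; growth read visually ± resazurin; FICI = FICA + FICB.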

[4] = system: tigecycline resistant Salmonella, E. coli, Acinetobacter and Proteus isolates containing tet(X) genes; assay: Checkerboard assays across the panel of isolates; format: cell-based; settings: against all of the strains tested
Description: as §1, with “Analysis of the MIC and checkerboard results were carried out by visual inspection of growth, with and without resazurin dye, an oxidation–reduction indicator.[75]” left out, “Results were interpreted as follows: synergistic (<0.5), indifferent (1.0–4.0) or antagonistic (>4.0).[64]” left out

[5] = inhibitor in combination with tigecycline
[6] = tigecycline in combination with the inhibitor
[7] = read-out: Tet(X) Inhibitor MIC, alone, without L-arabinose induction
[8] = read-out: Tet(X) inhibitor MIC, alone, induced with 0.2%w/v L-arabinose
[9] = with tigecycline, 0.2%w/v L-arabinose
[10] = with tigecycline, without L-arabinose
[11] = induced with 0.2%w/v L-arabinose
[12] = with doxycycline, 0.2%w/v L-arabinose
[13] = with doxycycline, no L-arabinose
[14] = with tetracycline, 0.2%w/v L-arabinose
[15] = with tetracycline, no L-arabinose

## Cc1c2c(c(O)c3c(O)cccc13)C(=O)[C@]1(O)C(=O)C(C(N)=O)=C(O)[C@@H](N(C)C)[C@@H]1C2 [Anhydrotetracycline]
[1]; Acinetobacter spp. NT3-1
  MIC: 2 µg/mL
[1]; [5]
  Combination (Antibiotic/Inhibitor) MICs: inhibitor: 0.25 µg/mL
[1]; [6]
  Combination (Antibiotic/Inhibitor) MICs: antibiotic: 0.5 µg/mL
[1]; with tigecycline
  FICI: 0.3
  Outcome: synergy (synergy (< 0.5))
[2]
  MIC: 32 µg/mL
[2]; [5]
  Combination (Antibiotic/Inhibitor) MICs: inhibitor: 16 µg/mL
[2]; [6]
  Combination (Antibiotic/Inhibitor) MICs: antibiotic: 8 µg/mL
[2]; with tigecycline
  FICI: 0.8
  Outcome: indifferent (indifferent (0.5-4.0))
[3]; [7]
  MIC: 8 µg/mL
[3]; [8]
  MIC: 8 µg/mL
[3]; 0.2%w/v L-arabinose
  Combination (antibiotic/inhibitor) MIC: inhibitor: 2 µg/mL
  Combination (antibiotic/inhibitor) MIC: antibiotic: 0.5 µg/mL
[3]; without L-arabinose
  Combination (antibiotic/inhibitor) MIC: inhibitor: 8 µg/mL
  Combination (antibiotic/inhibitor) MIC: antibiotic: 0.25 µg/mL
[3]; [9]
  FICI: 0.4
  Outcome: Synergy (synergy (≤0.5))
[3]; [10]
  FICI: 2
  Outcome: indifferent (indifferent (0.5-4.0))

## O=C(c1ccc(OCCN2CCCCC2)cc1)c1c(-c2ccc(O)cc2)sc2cc(O)ccc12 [Raloxifene]
[1]; Acinetobacter spp. NT3-1
  MIC: 4 µg/mL
[1]; [5]
  Combination (Antibiotic/Inhibitor) MICs: inhibitor: 2 µg/mL
[1]; [6]
  Combination (Antibiotic/Inhibitor) MICs: antibiotic: 2 µg/mL
[1]; with tigecycline
  FICI: 1
  Outcome: indifferent (indifferent (0.5-4.0))
[2]
  MIC: > 128 µg/mL
[2]; [5]
  Combination (Antibiotic/Inhibitor) MICs: inhibitor: 128 µg/mL
[2]; [6]
  Combination (Antibiotic/Inhibitor) MICs: antibiotic: 16 µg/mL
[2]; with tigecycline
  FICI: 1.5
  Outcome: indifferent (indifferent (0.5-4.0))
[3]; [7]
  MIC: > 128 µg/mL
[3]; [8]
  MIC: > 128 µg/mL
[3]; 0.2%w/v L-arabinose
  Combination (antibiotic/inhibitor) MIC: inhibitor: 128 µg/mL
  Combination (antibiotic/inhibitor) MIC: antibiotic: 0.5 µg/mL
[3]; without L-arabinose
  Combination (antibiotic/inhibitor) MIC: inhibitor: > 128 µg/mL
  Combination (antibiotic/inhibitor) MIC: antibiotic: 0.25 µg/mL
[3]; [9]
  FICI: 1.1
  Outcome: Indifferent (indifferent (0.5–4.0))
[3]; [10]
  FICI: 2
  Outcome: indifferent (indifferent (0.5-4.0))

## [H]/N=C(/NCCCCC)N/N=C/c1c[nH]c2ccc(OC)cc12 [Tegaserod]
[4]
  reduction of the tigecycline MIC in combination: 2–8 fold
[1]; Acinetobacter spp. NT3-1
  MIC: 4 µg/mL
[1]; alone, Acinetobacter spp. NT3-1
  Tet(X) inhibitor MIC: 8 µg/mL
[1]; doxycycline with tegaserod
  Combination (Antibiotic/Inhibitor) MICs: antibiotic: 4 µg/mL
[1]; [5]
  Combination (Antibiotic/Inhibitor) MICs: inhibitor: 2 µg/mL
[1]; tegaserod with doxycycline
  Combination (Antibiotic/Inhibitor) MICs: inhibitor: 4 µg/mL
[1]; tegaserod with tetracycline
  Combination (Antibiotic/Inhibitor) MICs: inhibitor: 4 µg/mL
[1]; tetracycline with tegaserod
  Combination (Antibiotic/Inhibitor) MICs: antibiotic: 16 µg/mL
[1]; [6]
  Combination (Antibiotic/Inhibitor) MICs: antibiotic: 0.5 µg/mL
[1]; with doxycycline
  FICI: 1.0
  Outcome: indifferent (indifferent (0.5-4.0))
[1]; with tetracycline
  FICI: 0.8
  Outcome: indifferent (indifferent (0.5-4.0))
[1]; with tigecycline
  FICI: 0.6
  Outcome: indifferent (indifferent (0.5-4.0))
[2]
  MIC: 32 µg/mL
[2]; doxycycline with tegaserod
  Combination (Antibiotic/Inhibitor) MICs: antibiotic: 8 µg/mL
[2]; [5]
  Combination (Antibiotic/Inhibitor) MICs: inhibitor: 8 µg/mL
[2]; tegaserod with doxycycline
  Combination (Antibiotic/Inhibitor) MICs: inhibitor: 16 µg/mL
[2]; tegaserod with tetracycline
  Combination (Antibiotic/Inhibitor) MICs: inhibitor: 16 µg/mL
[2]; tetracycline with tegaserod
  Combination (Antibiotic/Inhibitor) MICs: antibiotic: 32 µg/mL
[2]; [6]
  Combination (Antibiotic/Inhibitor) MICs: antibiotic: 8 µg/mL
[2]; with doxycycline
  FICI: 0.8
  Outcome: indifferent (indifferent (0.5-4.0))
[2]; with tetracycline
  FICI: 0.8
  Outcome: indifferent (indifferent (0.5-4.0))
[2]; with tigecycline
  FICI: 0.5
  Outcome: indifferent (indifferent (0.5-4.0))
[3]; read-out: Tet(X) Inhibitor MIC, alone, 0.2%w/v L-arabinose (Table S7)
  MIC: 16 µg/mL
[3]; [7]
  MIC: 16 µg/mL
[3]; [8]
  MIC: 16 to 64 µg/mL
[3]; [11]
  Tet(X) inhibitor MIC: 16 µg/mL
[3]; 0.2%w/v L-arabinose
  reduction of the tigecycline MIC: 2–4 fold
  Combination (antibiotic/inhibitor) MIC: inhibitor: 8 µg/mL
  Combination (antibiotic/inhibitor) MIC: antibiotic: 1 µg/mL
[3]; doxycycline with tegaserod, 0.2%w/v L-arabinose
  Combination (Antibiotic/Inhibitor) MICs: antibiotic: 16 µg/mL
[3]; doxycycline with tegaserod, no L-arabinose
  Combination (Antibiotic/Inhibitor) MICs: antibiotic: 8 µg/mL
[3]; without L-arabinose
  Combination (antibiotic/inhibitor) MIC: inhibitor: 16 µg/mL
  Combination (antibiotic/inhibitor) MIC: antibiotic: 0.25 µg/mL
[3]; tegaserod with doxycycline, 0.2%w/v L-arabinose
  Combination (Antibiotic/Inhibitor) MICs: inhibitor: 4 µg/mL
[3]; tegaserod with doxycycline, no L-arabinose
  Combination (Antibiotic/Inhibitor) MICs: inhibitor: 0.5 µg/mL
[3]; tegaserod with tetracycline, 0.2%w/v L-arabinose
  Combination (Antibiotic/Inhibitor) MICs: inhibitor: 8 µg/mL
[3]; tegaserod with tetracycline, no L-arabinose
  Combination (Antibiotic/Inhibitor) MICs: inhibitor: 4 µg/mL
[3]; tetracycline with tegaserod, 0.2%w/v L-arabinose
  Combination (Antibiotic/Inhibitor) MICs: antibiotic: 64 µg/mL
[3]; tetracycline with tegaserod, no L-arabinose
  Combination (Antibiotic/Inhibitor) MICs: antibiotic: 16 µg/mL
[3]; [12]
  FICI: 0.8
  Outcome: indifferent (indifferent (0.5-4.0))
[3]; [13]
  FICI: 1.0
  Outcome: indifferent (indifferent (0.5-4.0))
[3]; [14]
  FICI: 1.0
  Outcome: indifferent (indifferent (0.5-4.0))
[3]; [15]
  FICI: 2.0
  Outcome: indifferent (indifferent (0.5-4.0))
[3]; [9]
  FICI: 0.8
  Outcome: Indifferent (indifferent (0.5–4.0))
[3]; with tigecycline, 0.2%w/v L-arabinose, listed as tegaserod
  FICI: 0.5-1
[3]; [10]
  FICI: 2
  Outcome: indifferent (indifferent (0.5-4.0))

## CN1CCN(CCCN2c3ccccc3Sc3ccc(C(F)(F)F)cc32)CC1 [Trifluoperazine]
[1]; Acinetobacter spp. NT3-1
  MIC: 16 µg/mL
[1]; [5]
  Combination (Antibiotic/Inhibitor) MICs: inhibitor: 16 µg/mL
[1]; [6]
  Combination (Antibiotic/Inhibitor) MICs: antibiotic: 4 µg/mL
[1]; with tigecycline
  FICI: 2
  Outcome: indifferent (indifferent (0.5-4.0))
[2]
  MIC: > 128 µg/mL
[2]; [5]
  Combination (Antibiotic/Inhibitor) MICs: inhibitor: 64 µg/mL
[2]; [6]
  Combination (Antibiotic/Inhibitor) MICs: antibiotic: 16 µg/mL
[2]; with tigecycline
  FICI: 1
  Outcome: indifferent (indifferent (0.5-4.0))
[3]; [7]
  MIC: 64 µg/mL
[3]; [11]
  Tet(X) inhibitor MIC: 64 µg/mL
[3]; induced with 0.2%w/v L-arabinose, listed as trifluoperazine
  Tet(X) inhibitor MIC: 16 to 64 µg/mL
[3]; 0.2%w/v L-arabinose
  reduction of the tigecycline MIC: 2–4 fold
  Combination (antibiotic/inhibitor) MIC: inhibitor: 8 µg/mL
  Combination (antibiotic/inhibitor) MIC: antibiotic: 2 µg/mL
[3]; without L-arabinose
  Combination (antibiotic/inhibitor) MIC: inhibitor: 32 µg/mL
  Combination (antibiotic/inhibitor) MIC: antibiotic: 0.13 µg/mL
[3]; [9]
  FICI: 0.6
  Outcome: Indifferent (indifferent (0.5–4.0))
[3]; with tigecycline, 0.2%w/v L-arabinose, listed as trifluoperazine
  FICI: 0.5-1
[3]; [10]
  FICI: 1
  Outcome: indifferent (indifferent (0.5-4.0))
